Publication PMC7534258, “Novel temporin L antimicrobial peptides: promoting self-assembling by lipidic tags to tackle superbugs” (Journal of Enzyme Inhibition and Medicinal Chemistry, 2020)
≈ marks a conversion by molar mass, not a printed value. Where a SMILES comes first, the peptide text is derived from it. [ ]: non-standard residue; d: D form. The star is where a group is joined. Tridecanoyl = CCCCCCCCCCCCC(=O)*; Undecanoyl = CCCCCCCCCCC(=O)*; Heptanoyl = CCCCCCC(=O)*; Orn = NCCC[C@H](N)C(=O)O; Pentanoyl = CCCCC(=O)*

Tests used:
S. aureus ATCC 25923 = test: microbe, parasite or virus in culture; details: for MIC: Staphylococcus aureus, ATCC25923, read-out: Antimicrobial activity (MIC) S. aureus ATCC 25923
Procedure: (§1) Staphylococcus aureus ATCC 25923, Pseudomonas aeruginosa ATCC 27853 and Klebsiella pneumoniae ATCC BAA-1705 (carbapenemase producer) were obtained from the American Type Culture Collection (Rockville, MD).
(§2) Identification was performed by sub-culturing on Tryptic Soy Agar (TSA, Becton Dickinson) and by biochemical characterisation using the Vitek II system (Biomerieux). The antimicrobial susceptibility testing of all isolates was determined using Vitek II system and results were interpreted according to European Committee on Antimicrobial Susceptibility Testing (EUCAST version 9.0, 2019). P. aeruginosa was cultured in Brain Heart Infusion broth (BHI, OXOID), S. aureus and K. pneumoniae were cultured in Tryptic Soya broth (TSB, OXOID), under aerobic conditions at 37 °C, for 24 h on an orbital shaker at 200 rpm.
(§3) Minimal inhibitory concentrations (MIC) of all the peptides were determined in Mueller–Hinton medium by the broth microdilution assay, following the procedure already described[22]^,[34]. The compounds were added to bacterial suspension in each well yielding a final cell concentration of 1 × 10^6 CFU/ml and a final compound concentration ranging from 0.78 to 100 µM. Negative control wells were set to contain bacteria in Mueller–Hinton broth plus the amount of vehicle (ethanol) used to dilute each compound. Positive controls included vancomycin (2 µg/ml), tobramycin (4 µg/ml), gentamycin (4 µg/ml), and imipenem (8 µg/ml).

KpCR3 = test: microbe, parasite or virus in culture; details: Klebsiella pneumoniae, read-out: Antimicrobial activity (MIC) KpCR3
Procedure: (§4) Clinical strains of P. aeruginosa (Pa1, Pa2 and Pa3), K. pneumoniae (KpCR1, KpCR2 and KpCR3), and S. aureus (Sa1, Sa2 and Sa3) were isolated from bloodstream or pulmonary infections, and belong to a collection of bacterial strains established between 2010 and 2018 at the Department of Molecular Medicine and Medical Biotechnologies (University Federico II, Naples) for research use.
as §2, §3

Sa3 = test: microbe, parasite or virus in culture; details: Staphylococcus aureus, MRSA, read-out: Antimicrobial activity (MIC) Sa3
Procedure: as §4, §2, §3

Sa1 = test: microbe, parasite or virus in culture; details: Staphylococcus aureus, MRSA, read-out: Antimicrobial activity (MIC) Sa1
Procedure: as §4, §2, §3

Pa1 = test: microbe, parasite or virus in culture; details: Pseudomonas aeruginosa, PA1, read-out: Antimicrobial activity (MIC) Pa1
Procedure: as §4, §2, §3

KpCR1 = test: microbe, parasite or virus in culture; details: Klebsiella pneumoniae, read-out: Antimicrobial activity (MIC) KpCR1
Procedure: as §4, §2, §3

Sa2 = test: microbe, parasite or virus in culture; details: Staphylococcus aureus, MRSA, read-out: Antimicrobial activity (MIC) Sa2
Procedure: as §4, §2, §3

KpCR2 = test: microbe, parasite or virus in culture; details: Klebsiella pneumoniae, read-out: Antimicrobial activity (MIC) KpCR2
Procedure: as §4, §2, §3

Pa3 = test: microbe, parasite or virus in culture; details: Pseudomonas aeruginosa, read-out: Antimicrobial activity (MIC) Pa3
Procedure: as §4, §2, §3

Pa2 = test: microbe, parasite or virus in culture; details: Pseudomonas aeruginosa, read-out: Antimicrobial activity (MIC) Pa2
Procedure: as §4, §2, §3

[1] = tested on: K. pneumoniae ATCC BAA-1705; test: Broth microdilution MIC, reference strain; format: cell-based, Klebsiella pneumoniae
Procedure: as §1, §2, §3

P. aeruginosa ATCC 27853 = test: Broth microdilution MIC, reference strain; format: cell-based, Pseudomonas aeruginosa; details: for Antimicrobial activity (MIC) P. aeruginosa ATCC 27853: 100% growth inhibition after 16–18 h at 37 °C
Procedure: as §1, §2, §3

[2] = 100% growth inhibition after 16–18 h at 37 °C

Row | Compound | Antimicrobial activity (MIC) S. aureus ATCC 25923 (S. aureus ATCC 25923; ATCC 25923) [µM] | Antimicrobial activity (MIC) S. aureus ATCC 25923 (S. aureus ATCC 25923; [2]) [µM] | Antimicrobial activity (MIC) K. pneumoniae ATCC BAA-1705 [1, 2] [µM] | Antimicrobial activity (MIC) P. aeruginosa ATCC 27853 (P. aeruginosa ATCC 27853) [µM] | also measured
1 | CCCCC(=O)N[C@@H](Cc1ccccc1)C(=O)N[C@H](C(=O)N1CCC[C@H]1C(=O)N[C@@H](Cc1c[nH]c2ccccc12)C(=O)N[C@@H](Cc1ccccc1)C(=O)N[C@@H](CO)C(=O)N[C@@H](CCCCN)C(=O)N[C@@H](Cc1ccccc1)C(=O)N[C@H](CC(C)C)C(=O)NCC(=O)N[C@@H](CCCNC(=N)N)C(=O)N[C@H](C(=O)N[C@@H](CC(C)C)C(N)=O)[C@@H](C)CC)C(C)C [Compound 2A, CH3(CH2)3CO-Phe-Val-Pro-Trp-Phe-Ser-Lys-Phe-DLeu-Gly-Arg-Ile-Leu-NH2] (Pentanoyl-FVPWFSKF[dL]GRIL-NH2) | 12.5 | – | – | – | –
2 | C[C@@H](O)[C@H]1C(=O)N2C(C(=O)O)=C(SCCN=CN)C[C@H]12 [Imipenem] | – | – | – | – | MIC (S. aureus ATCC 25923): 0.5 µg/mL (≈ 1.67 µM); MIC (KpCR3): > 8 µg/mL; MIC (Sa3): > 8 µg/mL; MIC (Sa1): 8 µg/mL (≈ 26.7 µM); MIC (Pa1): > 4 µg/mL; MIC (KpCR1): > 8 µg/mL; MIC (Sa2): > 8 µg/mL; MIC (KpCR2): > 8 µg/mL; MIC (Pa3): > 4 µg/mL; MIC (Pa2): > 4 µg/mL; MIC ([1]; Klebsiella pneumoniae, ATCCBAA1705, antibiotics, 16–18 h at 37 °C, read-out: Antimicrobial activity (MIC) K. pneumoniae ATCC BAA-1705): > 8 µg/mL; MIC (P. aeruginosa ATCC 27853; Pseudomonas aeruginosa, ATCC27853, antibiotics, 16–18 h at 37 °C, read-out: Antimicrobial activity (MIC) P. aeruginosa ATCC 27853): 4 µg/mL (≈ 13.4 µM)
3 | CC[C@H](C)[C@H](NC(=O)[C@H](CCCNC(=N)N)NC(=O)CNC(=O)[C@@H](CC(C)C)NC(=O)[C@H](Cc1ccccc1)NC(=O)[C@H](CCCCN)NC(=O)[C@H](CO)NC(=O)[C@H](Cc1ccccc1)NC(=O)[C@H](Cc1c[nH]c2ccccc12)NC(=O)[C@@H]1CCCN1C(=O)[C@@H](NC(=O)[C@@H](N)Cc1ccccc1)C(C)C)C(=O)N[C@@H](CC(C)C)C(N)=O [Compound 1A, H-Phe-Val-Pro-Trp-Phe-Ser-Lys-Phe-dLeu-Gly-Arg-Ile-Leu-NH2] (H-FVPWFSKF[dL]GRIL-NH2) | – | 6.25 | 50 | 50 | –
4 | CCCCCCC(=O)NCCC[C@H](NC(=O)[C@H](CC(C)C)NC(=O)[C@@H](NC(=O)[C@H](CCCNC(=N)N)NC(=O)[C@@H](CCCCN)NC(=O)[C@@H](CC(C)C)NC(=O)[C@H](Cc1ccccc1)NC(=O)[C@H](CCCCN)NC(=O)[C@H](CO)NC(=O)[C@H](Cc1ccccc1)NC(=O)[C@H](Cc1c[nH]c2ccccc12)NC(=O)[C@@H]1CCCN1C(=O)[C@@H](NC(=O)[C@@H](N)Cc1ccccc1)C(C)C)[C@@H](C)CC)C(N)=O [E, H-Phe-Val-Pro-Trp-Phe-Ser-Lys-Phe-DLeu-DLys-Arg-Ile-Leu-Orn(NHCO(CH2)5CH3)-NH2] (H-FVPWFSKF[dL][dK]RIL[Orn](Heptanoyl)-NH2) | 25 | – | – | – | Antimicrobial activity (MIC) K. pneumoniae ATCC BAA-1705 ([1]; ATCC BAA-1705): 50 µM
5 | CN[C@H](CC(C)C)C(=O)N[C@H]1C(=O)N[C@@H](CC(N)=O)C(=O)N[C@H]2C(=O)N[C@H]3C(=O)N[C@H](C(=O)N[C@H](C(=O)O)c4cc(O)cc(O)c4-c4cc3ccc4O)[C@H](O)c3ccc(c(Cl)c3)Oc3cc2cc(c3O[C@@H]2O[C@H](CO)[C@@H](O)[C@H](O)[C@H]2O[C@H]2C[C@](C)(N)[C@H](O)[C@H](C)O2)Oc2ccc(cc2Cl)[C@H]1O [Vancomycin] | – | – | – | – | MIC (S. aureus ATCC 25923): 2 µg/mL (≈ 1.38 µM); MIC (Sa3): 2 µg/mL (≈ 1.38 µM); MIC (Sa1): 2 µg/mL (≈ 1.38 µM); MIC (Sa2): 1 µg/mL (≈ 0.69 µM)
6 | CCCCCCCCCCC(=O)N[C@@H](Cc1ccccc1)C(=O)N[C@H](C(=O)N1CCC[C@H]1C(=O)N[C@@H](Cc1c[nH]c2ccccc12)C(=O)N[C@@H](Cc1ccccc1)C(=O)N[C@@H](CO)C(=O)N[C@@H](CCCCN)C(=O)N[C@@H](Cc1ccccc1)C(=O)N[C@H](CC(C)C)C(=O)N[C@H](CCCCN)C(=O)N[C@@H](CCCNC(=N)N)C(=O)N[C@H](C(=O)N[C@@H](CC(C)C)C(N)=O)[C@@H](C)CC)C(C)C [Compound 4B, CH3(CH2)9CO-Phe-Val-Pro-Trp-Phe-Ser-Lys-Phe-DLeu-DLys-Arg-Ile-Leu-NH2] (Undecanoyl-FVPWFSKF[dL][dK]RIL-NH2) | – | > 100 | > 100 | > 100 | –
7 | CCCCC(=O)NCCC[C@H](NC(=O)[C@H](CC(C)C)NC(=O)[C@@H](NC(=O)[C@H](CCCNC(=N)N)NC(=O)[C@@H](CCCCN)NC(=O)[C@@H](CC(C)C)NC(=O)[C@H](Cc1ccccc1)NC(=O)[C@H](CCCCN)NC(=O)[C@H](CO)NC(=O)[C@H](Cc1ccccc1)NC(=O)[C@H](Cc1c[nH]c2ccccc12)NC(=O)[C@@H]1CCCN1C(=O)[C@@H](NC(=O)[C@@H](N)Cc1ccccc1)C(C)C)[C@@H](C)CC)C(N)=O [D, H-Phe-Val-Pro-Trp-Phe-Ser-Lys-Phe-DLeu-DLys-Arg-Ile-Leu-Orn(NHCO(CH2)3CH3)-NH2] (H-FVPWFSKF[dL][dK]RIL[Orn](Pentanoyl)-NH2) | 25 | – | – | – | Antimicrobial activity (MIC) K. pneumoniae ATCC BAA-1705 ([1]; ATCC BAA-1705): 50 µM
8 | CCCCCCCCCCCCC(=O)N[C@@H](Cc1ccccc1)C(=O)N[C@H](C(=O)N1CCC[C@H]1C(=O)N[C@@H](Cc1c[nH]c2ccccc12)C(=O)N[C@@H](Cc1ccccc1)C(=O)N[C@@H](CO)C(=O)N[C@@H](CCCCN)C(=O)N[C@@H](Cc1ccccc1)C(=O)N[C@H](CC(C)C)C(=O)NCC(=O)N[C@@H](CCCNC(=N)N)C(=O)N[C@H](C(=O)N[C@@H](CC(C)C)C(N)=O)[C@@H](C)CC)C(C)C [Compound 5A, CH3(CH2)11CO-Phe-Val-Pro-Trp-Phe-Ser-Lys-Phe-DLeu-Gly-Arg-Ile-Leu-NH2] (Tridecanoyl-FVPWFSKF[dL]GRIL-NH2) | – | > 100 | > 100 | > 100 | –
9 | CCCCCCC(=O)N[C@@H](Cc1ccccc1)C(=O)N[C@H](C(=O)N1CCC[C@H]1C(=O)N[C@@H](Cc1c[nH]c2ccccc12)C(=O)N[C@@H](Cc1ccccc1)C(=O)N[C@@H](CO)C(=O)N[C@@H](CCCCN)C(=O)N[C@@H](Cc1ccccc1)C(=O)N[C@H](CC(C)C)C(=O)NCC(=O)N[C@@H](CCCNC(=N)N)C(=O)N[C@H](C(=O)N[C@@H](CC(C)C)C(N)=O)[C@@H](C)CC)C(C)C [Compound 3A, CH3(CH2)5CO-Phe-Val-Pro-Trp-Phe-Ser-Lys-Phe-DLeu-Gly-Arg-Ile-Leu-NH2] (Heptanoyl-FVPWFSKF[dL]GRIL-NH2) | 12.5 | – | – | – | –
10 | CCCCCCCCCCC(=O)N[C@@H](Cc1ccccc1)C(=O)N[C@H](C(=O)N1CCC[C@H]1C(=O)N[C@@H](Cc1c[nH]c2ccccc12)C(=O)N[C@@H](Cc1ccccc1)C(=O)N[C@@H](CO)C(=O)N[C@@H](CCCCN)C(=O)N[C@@H](Cc1ccccc1)C(=O)N[C@H](CC(C)C)C(=O)NCC(=O)N[C@@H](CCCNC(=N)N)C(=O)N[C@H](C(=O)N[C@@H](CC(C)C)C(N)=O)[C@@H](C)CC)C(C)C [Compound 4A, CH3(CH2)9CO-Phe-Val-Pro-Trp-Phe-Ser-Lys-Phe-DLeu-Gly-Arg-Ile-Leu-NH2] (Undecanoyl-FVPWFSKF[dL]GRIL-NH2) | – | > 100 | > 100 | > 100 | –
11 | CCCCCCCCCCCCC(=O)N[C@@H](Cc1ccccc1)C(=O)N[C@H](C(=O)N1CCC[C@H]1C(=O)N[C@@H](Cc1c[nH]c2ccccc12)C(=O)N[C@@H](Cc1ccccc1)C(=O)N[C@@H](CO)C(=O)N[C@@H](CCCCN)C(=O)N[C@@H](Cc1ccccc1)C(=O)N[C@H](CC(C)C)C(=O)N[C@H](CCCCN)C(=O)N[C@@H](CCCNC(=N)N)C(=O)N[C@H](C(=O)N[C@@H](CC(C)C)C(N)=O)[C@@H](C)CC)C(C)C [Compound 5B, CH3(CH2)11CO-Phe-Val-Pro-Trp-Phe-Ser-Lys-Phe-DLeu-DLys-Arg-Ile-Leu-NH2] (Tridecanoyl-FVPWFSKF[dL][dK]RIL-NH2) | – | > 100 | > 100 | > 100 | –
